In paper PMC10914734 (Signal Transduction and Targeted Therapy, 2024):

target: Human CTSL (Homo sapiens, UniProt P07711); assay: FRET-based cleavage assay, enzymatic inhibition of human CTSL; details: not given
Sequence (P07711 114-333): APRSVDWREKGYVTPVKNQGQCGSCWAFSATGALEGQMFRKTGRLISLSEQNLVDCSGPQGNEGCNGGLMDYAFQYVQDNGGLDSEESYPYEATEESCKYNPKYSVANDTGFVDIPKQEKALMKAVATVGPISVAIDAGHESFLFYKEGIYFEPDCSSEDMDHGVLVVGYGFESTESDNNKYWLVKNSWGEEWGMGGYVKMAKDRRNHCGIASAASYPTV

| Compound | IC50 [µM] |
| --- | --- |
| O=C(N[C@@H](Cc1ccc(F)cc1)C(=O)N[C@H](/C=N/Nc1ncccn1)C[C@@H]1CCCNC1=O)c1cc2ccccc2o1 [14h, N-((S)-3-(4-fluorophenyl)-1-oxo-1-(((S,E)-1-((S)-2-oxopiperidin-3-yl)-3-(2-(pyrimidin-2-yl)hydrazineylidene)propan-2-yl)amino)propan-2-yl)benzofuran-2-carboxamide] | 1.6 |
| O=C(N[C@@H](Cc1ccc(F)cc1)C(=O)N[C@H](/C=N/NC(=O)C1CCCCC1)C[C@@H]1CCCNC1=O)c1cc2ccccc2o1 [14f, N-((S)-1-(((S,E)-1-(2-(cyclohexanecarbonyl)hydrazineylidene)-3-((S)-2-oxopiperidin-3-yl)propan-2-yl)amino)-3-(4-fluorophenyl)-1-oxopropan-2-yl)benzofuran-2-carboxamide] | 8.53 |
| CC1(C)[C@@H]2[C@@H](C(=O)N[C@@H](C[C@@H]3CCCNC3=O)C(=O)C(=O)NCc3ccccc3)N(C(=O)c3cc4ccccc4o3)C[C@@H]21 [14m, (1R,2S,5S)-3-(benzofuran-2-carbonyl)-N-((S)-4-(benzylamino)-3,4-dioxo-1-((S)-2-oxopiperidin-3-yl)butan-2-yl)-6,6-dimethyl-3-azabicyclo[3.1.0]hexane-2-carboxamide] | 1.87 |
| O=C(N[C@@H](Cc1ccc(F)cc1)C(=O)N[C@H](/C=C/S(=O)(=O)c1ccccc1)C[C@@H]1CCCNC1=O)c1cc2ccccc2o1 [14c, N-((S)-3-(4-fluorophenyl)-1-oxo-1-(((S,E)-1-((S)-2-oxopiperidin-3-yl)-4-(phenylsulfonyl)but-3-en-2-yl)amino)propan-2-yl)benzofuran-2-carboxamide] | 0.0503 ± 0.0121 |
| O=C(N[C@@H](Cc1ccc(F)cc1)C(=O)N[C@H](/C=N/NC(=O)C1CC1)C[C@@H]1CCCNC1=O)c1cc2ccccc2o1 [14g, N-((S)-1-(((S,E)-1-(2-(cyclopropanecarbonyl)hydrazineylidene)-3-((S)-2-oxopiperidin-3-yl)propan-2-yl)amino)-3-(4-fluorophenyl)-1-oxopropan-2-yl)benzofuran-2-carboxamide] | 1.32 |
| O=C(N/N=C/[C@H](C[C@@H]1CCCNC1=O)NC(=O)[C@H](Cc1ccc(F)cc1)NC(=O)c1cc2ccccc2o1)c1ccccc1 [14e, N-((S)-1-(((S,E)-1-(2-benzoylhydrazineylidene)-3-((S)-2-oxopiperidin-3-yl)propan-2-yl)amino)-3-(4-fluorophenyl)-1-oxopropan-2-yl)benzofuran-2-carboxamide] | 3.94 |
| O=C(O)/C(F)=C/[C@H](C[C@@H]1CCCNC1=O)NC(=O)[C@H](CC1CCCCC1)NC(=O)c1cc2ccccc2o1 [14i, (S,Z)-4-((S)-2-(benzofuran-2-carboxamido)-3-cyclohexylpropanamido)-2-fluoro-5-((S)-2-oxopiperidin-3-yl)pent-2-enoic acid] | 2.16 |

same assay, conditions: read-out: IC50, enzymatic inhibitory activity against human CTSL; mean ± SD

| Compound | IC50 [µM] |
| --- | --- |
| O=C(N[C@@H](CC1C=CC=CC1)C(=O)N[C@H](/C=C/S(=O)(=O)c1ccccc1)C[C@@H]1CCCNC1=O)c1cc2ccccc2o1 (stereo partly drawn) [14d, N-((2S)-3-(cyclohexa-2,4-dien-1-yl)-1-oxo-1-(((S,E)-1-((S)-2-oxopiperidin-3-yl)-4-(phenylsulfonyl)but-3-en-2-yl)amino)propan-2-yl)benzofuran-2-carboxamide] | 0.0772 ± 0.012 |

same assay, conditions: read-out: Inhibition rate against human CTSL

| Compound | inhibition at 1 µM [%] |
| --- | --- |
| CCOC(=O)/C(F)=C/[C@H](C[C@@H]1CCCNC1=O)NC(=O)[C@H](CC1CCCCC1)NC(=O)c1cc2ccccc2o1 [14j, Ethyl (S,Z)-4-((S)-2-(benzofuran-2-carboxamido)-3-cyclohexylpropanamido)-2-fluoro-5-((S)-2-oxopiperidin-3-yl)pent-2-enoate] | 30 |
| O=C(NCc1ccccc1)C(=O)[C@H](C[C@@H]1CCCNC1=O)NC(=O)[C@@H]1[C@H]2CCC[C@H]2CN1C(=O)c1cc2ccccc2o1 [14l, (1S,3aR,6aS)-2-(benzofuran-2-carbonyl)-N-((S)-4-(benzylamino)-3,4-dioxo-1-((S)-2-oxopiperidin-3-yl)butan-2-yl)octahydrocyclopenta[c]pyrrole-1-carboxamide] | 12 |
| O=C(NC1CC1)/C(F)=C/[C@H](C[C@@H]1CCCNC1=O)NC(=O)[C@H](CC1CCCCC1)NC(=O)c1cc2ccccc2o1 [14k, N-((S)-3-cyclohexyl-1-(((S,Z)-5-(cyclopropylamino)-4-fluoro-5-oxo-1-((S)-2-oxopiperidin-3-yl)pent-3-en-2-yl)amino)-1-oxopropan-2-yl)benzofuran-2-carboxamide] | 37 |
